This note sets out measurements from patent US8835353B2, “Germination acceleration” (Valent BioSciences Corporation, priority 2007, dated 2014).

Data set [1] relates to sweet corn (cv. Silver Queen). The experiment in a line: Pro-Mix study: seed treatment, coleoptile emergence and length at 10° C. It is filed as in vivo. Particulars: ProMix at 10° C. The method, then: (§1) For all seed treatments, 1 ppm active ingredient refers to 1 microgram active ingredient per gram of seed. For these studies, GA3, GA4/7, 6BA, or CPPU were each dispensed into a 15 ml centrifuge tube, and 2.5 ml of de-ionized water was then added to each tube. The solution was mixed on a vortex mixer and 0.25 ml of this solution was then placed in another 50 ml. centrifuge tube along with 10 grams of sweet corn seed (cv. Silver Queen) or field corn (cv. Hybrid 2652) seed and rotated 360° on a Labquake Rotissarie for 10 minutes to ensure proper seed coverage. To simulate commercial seed treatments, the amount of solutions was just sufficient to wet the seeds. Seeds were dried overnight in weigh boats.
Pro-Mix studies: Pro Mix potting media was cooled to 10° C. and then placed in a 20 inch×10 inch flat to a depth of 5 cm. A trough of twenty seeds/treatment were planted at a depth of 2 cm. Four trays of twenty seeds each were planted per treatment. The trays were incubated in a growth chamber set at 10° C., 16 hour light cycle. Corn emergence counts were made daily.
Sweet corn (cv. Silver Queen) seeds were treated with solutions containing GA4/7, 6BA, or GA4/7 and 6BA, planted into ProMix soil, and held at 10° C. At 22 days after treatment, more seedlings from seeds treated with the combination treatment of GA4/7 and 6BA had emerged than seeds treated with 6BA or GA4/7 alone (Table 2).
Sweet corn (cv. Silver Queen) seeds were treated with solutions containing GA3, 6BA, or GA3 and 6BA, planted into ProMix soil, and held at 10° C.

The subject of data set [2] is sweet corn (cv. Silver Queen). The experiment in a line: Pouch study: seed treatment, coleoptile and radicle growth at 10° C. The data set is classed as in vivo. Particulars: 6BA 10 ppm, pouches at 10° C. As for the experimental part: as §1, with “[…] Pouch studies: A CYG germination pouch was drenched with 17 ml of 10° C. de-ionized water. Three treated seeds” for “Seeds”, “placed” for “dried overnight”, “the trough of the germination paper, contained within the pouch. Pouches were placed in a Nalgene plastic container cooled to 10° C. The container was incubated in a 10° C. growth chamber with a 16 hour light cycle for the duration of the study. Seedling coleoptiles and radicles were measured by removing the seedling from the pouch and measuring with a ruler. […] The amount of applied is expressed as ppm or micrograms of compound per gram of seed. […]” for “weigh boats.”

Data set [3] relates to hybrid field corn (Hybrid 2652). The data set can be described thus: Petri plate study: seed treatment, coleoptile emergence at 10° C. The data set is classed as in vivo. Particulars: 6BA 10 ppm, petri plates at 10° C. The method, then:
For all seed treatments, 1 ppm active ingredient refers to 1 microgram active ingredient per gram of seed. For these studies, GA3, GA4/7, 6BA, or CPPU were each dispensed into a 15 ml centrifuge tube, and 2.5 ml of de-ionized water was then added to each tube. The solution was mixed on a vortex mixer and 0.25 ml of this solution was then placed in another 50 ml. centrifuge tube along with 10 grams of sweet corn seed (cv. Silver Queen) or field corn (cv. Hybrid 2652) seed and rotated 360° on a Labquake Rotissarie for 10 minutes to ensure proper seed coverage. To simulate commercial seed treatments, the amount of solutions was just sufficient to wet the seeds. […] Petri plate studies: Each standard petri plate (100 mm×50 mm) contained 1 blue Anchor germination circle (3¼ inches in diameter) drenched with 7 ml of de-ionized water cooled to 10° C. Each treatment consisted of 4 petri plates of 10 seeds each. After plating, the petri plates were placed in a Nalgene plastic container cooled to 10° C. This in turn was incubated in a 10° C. growth chamber with a 16 hour light cycle for the duration of the study. Counts were made by visually examining each seed for radicle and coleoptile protrusion. Hybrid field corn seeds (cv. Hybrid 2652) were treated with solutions containing GA4/7 or 6BA or combinations of GA4/7 and 6BA, plated onto wetted paper in a petri plate, and held at 10° C.

Data set [4] relates to seedlings. The experiment in a line: Preliminary studies: seedling quality and radicle growth after seed treatment. It is filed as in vivo, corn. Particulars: high rates of 6BA (>10 ppm).
Data set [5] relates to sweet corn (cv. Silver Queen). The data set can be described thus: Petri plate study: seed treatment, coleoptile emergence at 10° C. The data set is classed as in vivo. Particulars: petri plates at 10° C. As for the experimental part:
as §1
Petri plate studies: Each standard petri plate (100 mm×50 mm) contained 1 blue Anchor germination circle (3¼ inches in diameter) drenched with 7 ml of de-ionized water cooled to 10° C. Each treatment consisted of 4 petri plates of 10 seeds each. After plating, the petri plates were placed in a Nalgene plastic container cooled to 10° C. This in turn was incubated in a 10° C. growth chamber with a 16 hour light cycle for the duration of the study. Counts were made by visually examining each seed for radicle and coleoptile protrusion. […]

SMILES strings stand for the structures.

In the case of `c1ccc(CNc2ncnc3nc[nH]c23)cc1` [6BA, N^6-phenylmethyl-1H-purin-6-amine], in data set [1] (6BA 10 ppm), the “Percent coleoptile emergence at 21 days after treatment” value is given as 3.7%. Further, in data set [1] (6BA 10 ppm, 22 days), the “Percent coleoptile emergence at 22 days after treatment” value stood at 6.2%. Also, the “Coleoptile length above ground (mm) at 32 days after treatment” value in data set [1] (6BA 10 ppm, 32 days) was determined as 17.1 mm. For the same compound, the “Length of the emerged coleoptiles at 32 days after treatment, compared to the control” value in data set [1] (6BA, 32 days) was “no significant effect compared to the control”. In addition, in data set [2], the “Coleoptile length (cm) at 22 days after treatment” value is 2.17 cm and the “Radicle length (cm) at 22 days after treatment” value was found to be 2.78 cm. Moreover, the “Percent coleoptile emergence at 12 days after treatment” value in data set [3] is 32%. In data set [4], the Radicle growth entry is given as “reduced radicle growth” and the Seedling quality entry is recorded as “substantially reduced seedling quality”.
Take `O=C(Nc1ccccc1)Nc1ccnc(Cl)c1` [CPPU, 1-(2-chloro-4-pyridyl)-3-phenylurea]: the “Percent coleoptile emergence at 14 days after treatment” value in data set [5] (CPPU 1 ppm) is 0%; in data set [5] (CPPU 10 ppm), 4%.
For the compound `C=C1C[C@]23C[C@@]1(O)CC[C@H]2[C@@]12C=C[C@H](O)[C@@](C)(C(=O)O1)[C@H]2[C@@H]3C(=O)O` [GA3, (1α,2β,4aα,4bβ,10β)-2,4a,7-trihydroxy-1-methyl-8-methylenegibb-3-ene-1,10-dicarboxylic acid 1,4a-lactone], in data set [1] (GA3 100 ppm), the “Percent coleoptile emergence at 21 days after treatment” value was determined as 1.2%.
